Measurements reported in ChEMBL document CHEMBL1136562, “Structure-activity relationships of substituted benzothiophene-anthranilamide factor Xa inhibitors” (Bioorg Med Chem Lett, 2003).

Assays:
Coagulation factor X = Coagulation factor X (Homo sapiens, UniProt P00742); assay: Inhibition constant against human factor Xa; conditions: read-out: Ki app
Prothrombin = Prothrombin (Homo sapiens, UniProt P00734); assay: Inhibition constant against human thrombin; conditions: read-out: Ki app
[1] = target: Cationic trypsin (Bos taurus); assay: Inhibition constant against bovine trypsin

Coagulation factor X, sequence (P00742 41-179 limits assumed): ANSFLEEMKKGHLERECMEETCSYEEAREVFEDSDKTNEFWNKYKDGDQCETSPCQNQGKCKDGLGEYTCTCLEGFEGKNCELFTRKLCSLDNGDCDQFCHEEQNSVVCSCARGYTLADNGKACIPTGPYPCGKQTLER
Coagulation factor X, sequence (P00742 235-488 limits assumed): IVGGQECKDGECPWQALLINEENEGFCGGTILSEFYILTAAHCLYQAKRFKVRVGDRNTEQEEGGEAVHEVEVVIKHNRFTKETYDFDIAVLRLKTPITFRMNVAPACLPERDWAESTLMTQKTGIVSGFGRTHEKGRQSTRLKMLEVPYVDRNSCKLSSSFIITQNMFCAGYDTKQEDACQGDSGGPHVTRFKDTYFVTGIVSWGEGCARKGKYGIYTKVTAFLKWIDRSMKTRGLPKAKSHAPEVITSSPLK

Compound	Ki (Coagulation factor X) [µM]	Ki (Prothrombin) [µM]	Ki app [1] [µM]
O=C(Nc1ccc(Cl)cc1)c1cc(Cl)c(F)cc1NC(=O)c1sc2ccccc2c1Cl	0.007	> 5	–
Cc1ccc(NC(=O)c2sc3ccccc3c2Cl)c(C(=O)Nc2ccc(C(F)(F)F)cc2)c1	> 5	> 5	> 5
COc1cc(Cl)cc(C(=O)Nc2ccc(Cl)cc2)c1NC(=O)c1sc2ccccc2c1Cl	0.0022	> 5	> 5
CSc1ncc(Cl)c(C(=O)Nc2ccc(C)cc2C(=O)Nc2ccc(Cl)cc2)n1	> 5	> 5	> 5
O=C(Nc1ccc(Cl)cc1)c1cccc(O)c1NC(=O)c1sc2ccccc2c1Cl	0.018	> 5	–
O=C(Nc1cccc(Cl)c1C(=O)Nc1ccc(Cl)cc1)c1sc2ccccc2c1Cl	> 5	> 5	> 5
O=C(Nc1ccc(Cl)cc1)c1ccc(Cl)cc1NC(=O)c1sc2ccccc2c1Cl	0.026	> 5	–
Cc1ccc(NC(=O)c2sc3ccccc3c2Cl)c(C(=O)Nc2ccc(Cl)cn2)c1	0.0023	> 5	> 5
O=C(Nc1ccc(Cl)cc1)c1cc(O)ccc1NC(=O)c1sc2ccccc2c1Cl	0.073	> 5	> 5
Cc1ccc(NC(=O)c2sccc2Cl)c(C(=O)Nc2ccc(F)cc2)c1	0.39	> 5	> 5
Cc1ccc(NC(=O)c2sc(C)nc2C)c(C(=O)Nc2ccc(Cl)cc2)c1	0.21	> 5	–
O=C(Nc1ccc(Cl)cc1)c1cc([N+](=O)[O-])ccc1NC(=O)c1sc2ccccc2c1Cl	> 0.5	> 5	–
Cc1ccc(C(=O)Nc2ccc(Cl)cc2)c(NC(=O)c2sc3ccccc3c2Cl)c1	0.0072	> 5	> 5
Cc1ccc(NC(=O)c2sc3ccccc3c2C)c(C(=O)Nc2ccc(F)cc2)c1	0.025	> 5	> 5
CCOC(=O)COc1cccc(C(=O)Nc2ccc(Cl)cc2)c1NC(=O)c1sc2ccccc2c1Cl	0.022	> 5	> 5
Cc1ccc(NC(=O)c2sc3ccccc3c2Cl)c(C(=O)Nc2ccc(Br)cc2)c1	0.00046	> 5	–
Cc1ccc(NC(=O)c2sc3ccccc3c2Cl)c(C(=O)Nc2ccccn2)c1	0.03	> 5	> 5
Cc1ccc(NC(=O)c2sc3ccccc3c2Cl)c(C(=O)Nc2ccc(CN)cc2)c1	1.4	> 5	> 5
COc1c(Br)csc1C(=O)Nc1ccc(C)cc1C(=O)Nc1ccc(Cl)cc1	0.054	> 5	–
COC(=O)c1ccc(NC(=O)c2cc(C)ccc2NC(=O)c2sc3ccccc3c2Cl)cc1	> 5	> 5	> 5

Compound	Ki (Coagulation factor X) [µM]	Ki (Prothrombin) [µM]	Ki app [1] [µM]
Cc1cc(NC(=O)c2sc3ccccc3c2Cl)c(C(=O)Nc2ccc(Cl)cc2)cc1Cl	0.011	> 5	> 5
COc1ccsc1C(=O)Nc1ccc(C)cc1C(=O)Nc1ccc(Cl)cc1	0.16	> 5	> 5
Cc1ccc(NC(=O)c2sc3ccccc3c2Cl)c(C(=O)Nc2ccc(C#N)cc2)c1	0.15	> 5	–
Cc1ccc(NC(=O)c2sc3ccccc3c2Cl)c(C(=O)Nc2ccc(N)cc2)c1	0.28	> 5	–
Cc1ccc(NC(=O)c2cc(C)ccc2NC(=O)c2sc3ccccc3c2Cl)cc1	0.0071	> 5	> 5
O=C(Nc1ccc(Cl)cc1)c1cc(Cl)ccc1NC(=O)c1sc2ccccc2c1Cl	0.0006	> 5	> 5
O=C(Nc1ccc(Cl)cc1)c1ccc(C(F)(F)F)cc1NC(=O)c1sc2ccccc2c1Cl	0.1	> 5	> 5
Cc1ccc(NC(=O)c2sc3ccccc3c2O)c(C(=O)Nc2ccc(Cl)cc2)c1	4.4	> 5	–
O=C(Nc1ccc(Cl)cc1)c1cc(F)ccc1NC(=O)c1sc2ccccc2c1Cl	0.005	> 5	–
COc1c(C(=O)Nc2ccc(C)cc2C(=O)Nc2ccc(Cl)cc2)sc2ccccc12	0.0059	> 5	> 5
O=C(Nc1ccc(Cl)cc1)c1ccc(F)cc1NC(=O)c1sc2ccccc2c1Cl	0.015	> 5	–
Cc1ccc(NC(=O)c2sccc2Cl)c(C(=O)Nc2ccc(Cl)cc2)c1	0.13	> 5	–
O=C(Nc1ccc(Cl)cc1)c1ccccc1NC(=O)c1sc2ccccc2c1Cl	0.007	> 5	> 5
Cc1ccc(NC(=O)c2sc3ccccc3c2Cl)c(C(=O)Nc2ccc(C(=O)O)cc2)c1	4.7	> 5	> 5
Cc1ccc(NC(=O)c2sc3ccccc3c2Cl)c(C(=O)Nc2cccc(Cl)c2)c1	0.26	> 5	> 5
Cc1ccc(NC(=O)c2sc3ccccc3c2Cl)c(C(=O)Nc2cccnc2)c1	0.21	> 5	> 5
O=C(Nc1ccc(Cl)cc1)c1cccc(Cl)c1NC(=O)c1sc2ccccc2c1Cl	0.024	> 5	> 5
O=C(Nc1ccc(Cl)cc1)c1cc(N2CCCC2)ccc1NC(=O)c1sc2ccccc2c1Cl	> 5	> 5	> 5
Cc1ccc(NC(=O)c2sc3ccccc3c2Cl)c(C(=O)Nc2nccs2)c1	> 5	> 5	> 5
Cc1ccc(NC(=O)c2cc3ccccc3s2)c(C(=O)Nc2ccc(F)cc2)c1	0.59	> 5	–

Compound	Ki (Coagulation factor X) [µM]	Ki (Prothrombin) [µM]	Ki app [1] [µM]
Nc1ccc(NC(=O)c2sc3ccccc3c2Cl)c(C(=O)Nc2ccc(Cl)cc2)c1	0.016	> 5	> 5
Cc1ccc(NC(=O)c2cccnc2C)c(C(=O)Nc2ccc(Cl)cc2)c1	> 5	> 5	> 5
Cc1ccc(NC(=O)c2ccccc2Br)c(C(=O)Nc2ccc(Cl)cc2)c1	0.96	> 5	> 5
Cc1cc(Cl)cc(C(=O)Nc2ccc(Cl)cc2)c1NC(=O)c1sc2ccccc2c1Cl	0.0018	> 5	–
COc1ccc(COc2ccc(NC(=O)c3sc4ccccc4c3Cl)c(C(=O)Nc3ccc(Cl)cc3)c2)cc1	> 5	> 5	> 5
O=C(Nc1ccc(Cl)cc1)c1cc(Cl)cc(O)c1NC(=O)c1sc2ccccc2c1Cl	0.0037	> 5	–
COc1cccc(C(=O)Nc2ccc(Cl)cc2)c1NC(=O)c1sc2ccccc2c1Cl	0.022	> 5	–
Cc1cccc(C(=O)Nc2ccc(Cl)cc2)c1NC(=O)c1sc2ccccc2c1Cl	0.058	> 5	> 5
Cc1ccc(NC(=O)c2sc3ccccc3c2Cl)c(C(=O)Nc2ccccc2)c1	0.019	> 5	> 5
Cc1ccc(NC(=O)c2ccc3ccccc3c2)c(C(=O)Nc2ccc(Cl)cc2)c1	0.078	> 5	> 5
O=C(Nc1cccc(F)c1C(=O)Nc1ccc(Cl)cc1)c1sc2ccccc2c1Cl	0.026	> 5	> 5
CCOc1ccc(NC(=O)c2cc(C)ccc2NC(=O)c2sc3ccccc3c2Cl)cc1	> 5	> 5	> 5
Cc1cccc(NC(=O)c2sc3ccccc3c2Cl)c1C(=O)Nc1ccc(Cl)cc1	> 5	> 5	> 5
CN1CCN(c2ccc(NC(=O)c3sc4ccccc4c3Cl)c(C(=O)Nc3ccc(Cl)cc3)c2)CC1	0.47	> 5	> 5
Cc1ccc(NC(=O)c2scc(S(C)(=O)=O)c2Cl)c(C(=O)Nc2ccc(Cl)cc2)c1	0.014	> 5	> 5
Cc1ccc(NC(=O)c2sc3ccccc3c2Cl)c(C(=O)Nc2ccc(F)cc2)c1	–	> 5	–
COc1ccc(NC(=O)c2cc(C)ccc2NC(=O)c2sc3ccccc3c2Cl)cc1	0.016	> 5	> 5
Cc1ccc(NC(=O)c2sc3ccccc3c2Cl)c(C(=O)Nc2ccccc2Cl)c1	> 5	> 5	–
Cc1ccc(NC(=O)c2sc3ccccc3c2Cl)c(C(=O)Nc2ccc(Cl)cc2)c1	–	> 5	–
